Laboratory results as given in patent US9855280B2, “Nanoparticles containing azolium and N-heterocyclic carbene compounds and use thereof” (National Dong Hwa University, priority 2015, dated 2018).
Where two headings read alike, the source gives them in different places.

Columns and labels:
[1] = test system: THP-1 human acute monocytic leukemia cell line; assay: Cell proliferation (MTT) cytotoxicity, THP-1; assay type: cell-based; settings: THP-1, 72 h
From the text: (§1) Nine human cancerous cell lines, included human acute monocytic leukemia cell line (THP-1), human chronic myelogenous leukemia cell (K562), human acute lymphoblastic leukemia cell (CEM), human liver cancer cell line (HepG2), human colon cancer cell line (HT-29), human lung cancer cell line (H460), human breast cancer cell line (Hs578), human tongue squamous carcinoma (SAS), and human neuroblastoma cell line (SH—SY5Y) were purchased from the Bioresource Collection and Research Center (BCRC, Taiwan). A normal splenocyte is a primary cell acquired from the mouse spleen as a normal tissue cells to compare with nine cancer cell lines. They were cultured in either RPMI or DMEM (Gibco, CA, U.S.A) based media containing 2 mM L-glutamine, 1 mM sodium pyruvate, 50U/ml penicillin/50 μg/ml streptomycin (Gibco, CA, USA). and 10% fetal bovine serum ([…], HyClone Laboratories Inc., Logan, Utah, USA) at 37° C. with 5% CO2 supplied.
(§2) Cancer cells were seeded into 96-well plate at a starting density 8-10×10^3 cells/well. After overnight culture, [C16,TEGQ-Im]Cl, [C16,TEGQ-Imy)2Au]Cl, and AuNPs-B were added at various concentrations and duration times. […] The proliferation of the cells was measured at 72 h by the MTT method. The cell viability was examined using Ethidium bromide/Acride orange vital stain to exclude the dead cells and normalized the number of living cells to the total counted cells. […]

[2] = test system: K562 human chronic myelogenous leukemia cell; assay: Cell proliferation (MTT) cytotoxicity, K562; assay type: cell-based; settings: K562, 72 h
From the text: as §1
(§3) Cancer cells were seeded into 96-well plate at a starting density 8-10×10^3 cells/well. After overnight culture, [C16,TEGQ-Im]Cl, [C16,TEGQ-Imy)2Au]Cl, and AuNPs-B were added at various concentrations and duration times. Cisplantin of same concentration was added in the same plate as positive control (Sigma-Aldrich, St. Louis, Mo., USA). The proliferation of the cells was measured at 72 h by the MTT method. The cell viability was examined using Ethidium bromide/Acride orange vital stain to exclude the dead cells and normalized the number of living cells to the total counted cells. […] All experiments were performed in triplicate to calculate the experimental averages and standard deviations. […]

[3] = test system: CEM human acute lymphoblastic leukemia cell; assay: Cell proliferation (MTT) cytotoxicity, CEM; assay type: cell-based; settings: 72 h
From the text: as §1, §2

[4] = test system: HepG2 human liver cancer cell line; assay: Cell proliferation (MTT) cytotoxicity, HepG2; assay type: cell-based; settings: HepG2, 72 h
From the text: as §1, §3

[5] = test system: HT-29 human colon cancer cell line; assay: Cell proliferation (MTT) cytotoxicity, HT-29; assay type: cell-based; settings: HT-29, 72 h
From the text: as §1, §3

[6] = test system: H460 human lung cancer cell line; assay: Cell proliferation (MTT) cytotoxicity, H460; assay type: cell-based
From the text: as §1, §3

[7] = test system: Hs578T human breast cancer cell line; assay: Cell proliferation (MTT) cytotoxicity, Hs578T; assay type: cell-based; settings: 72 h
From the text: as §1, §3

[8] = test system: SAS human tongue squamous carcinoma; assay: Cell proliferation (MTT) cytotoxicity, SAS; assay type: cell-based; settings: 72 h
From the text: as §1, §3

[9] = test system: SH-SY5Y human neuroblastoma cell line; assay: Cell proliferation (MTT) cytotoxicity, SH-SY5Y; assay type: cell-based; settings: 72 h
From the text: as §1, §3

[10] = test system: splenocyte, primary cell acquired from the mouse spleen; assay: Cell proliferation (MTT) cytotoxicity, normal splenocyte; assay type: cell-based; settings: 72 h
From the text: as §1, §3

[11] = test system: nine cancer cell lines; assay: In vitro cytotoxicity across the panel of cancer cell lines; assay type: cell-based, human
From the text: as §1, §2

[12] = Solubility in water; assay type: physicochemical

With CCCCCCCCCCCCCCCCn1cc[n+](CCOCCOCCOc2cccc3cccnc23)[c]1[Au-][c]1n(CCOCCOCCOc2cccc3cccnc23)cc[n+]1CCCCCCCCCCCCCCCC.[Cl-] [[(C16,TEGQ-Imy)2Au]Cl] as the compound, how does the IC50 [1] read?
The IC50 was 3.37 ± 0.74 µg/mL.

What about the IC50 [2] of the same compound?
The IC50 was 2.71 ± 0.26 µg/mL.

And the IC50 [3]?
The IC50 was 4.11 ± 0.78 µg/mL.

What about the IC50 [4] of the same compound?
The IC50 was 7.47 ± 1.53 µg/mL.

And the IC50 [5]?
Its IC50 is 29.41 ± 16.89 µg/mL.

And the IC50 ([6]; H460, 72 h)?
The IC50 was 6.64 ± 1.22 µg/mL.

And the IC50 [7]?
Its IC50 is 0.66 ± 0.14 µg/mL.

What about the IC50 [8] of the same compound?
Its IC50 is 0.74 ± 0.03 µg/mL.

And the IC50 [9]?
The IC50 was 1.14 ± 0.31 µg/mL.

What about the IC50 [10] of the same compound?
The IC50 was 4.06 ± 1.66 µg/mL.

What about the “IC50, range over cell lines” value ([11]; all of the eight cancer cell lines) of the same compound?
The value was 2.7 to 29.4 µg/mL.

And the “Solubility in water” value [12]?
The value was “relatively poor solubility in water”.

For N.N.[Cl][Pt][Cl] [Cisplatin, reference compound], which IC50 [2] is on record?
The IC50 was 0.61 µg/mL.

And the IC50 [4]?
Its IC50 is 1.67 ± 0.23 µg/mL.

And the IC50 [5]?
The IC50 was 2.45 µg/mL.

And the IC50 ([6]; H460, 72 h)?
The IC50 was 1.23 ± 0.29 µg/mL.

What about the IC50 [7] of the same compound?
Its IC50 is 1.73 µg/mL.

And the IC50 [8]?
The IC50 was 2.21 µg/mL.

What about the IC50 [9] of the same compound?
Its IC50 is 0.60 µg/mL.

And the IC50 [10]?
Its IC50 is 0.71 ± 0.05 µg/mL.

What does the source list for CCCCCCCCCCCCCCCCn1cc[n+](CCOCCOCCOc2cccc3cccnc23)c1.[Cl-] [[C16,TEGQ-Im]Cl, 3-hexadecyl-1-(2-(2-(2-(quinolin-8-yloxy)ethoxy)ethoxy)ethyl)-imidazolium chloride]?
IC50 ([1]; Homo sapiens, read-out: IC50): 0.37 µg/mL; IC50 ([2]; Homo sapiens, read-out: IC50): 0.22 ± 0.03 µg/mL; IC50 ([3]; Homo sapiens, read-out: IC50): 0.67 ± 0.16 µg/mL; IC50 ([4]; Homo sapiens, read-out: IC50): 1.69 ± 0.14 µg/mL; IC50 ([5]; Homo sapiens, read-out: IC50): 0.88 ± 0.11 µg/mL; IC50 ([6]; Homo sapiens, NCI-H460, 72 h, read-out: IC50): 1.43 ± 0.3 µg/mL; IC50 ([7]; Homo sapiens, Hs-578T, read-out: IC50): 0.39 ± 0.05 µg/mL; IC50 ([8]; Homo sapiens, read-out: IC50): 0.89 ± 0.56 µg/mL; IC50 ([9]; Homo sapiens, read-out: IC50): 0.34 µg/mL; IC50 ([10]; read-out: IC50): 3.18 ± 0.76 µg/mL; IC50 ([11]; Homo sapiens, six cancer cell lines: THP-1, K562, HT-29, Hs578T, SH-SY5Y, SAS, read-out: IC50 values, range over cell lines): 0.22 to 0.89 µg/mL
